Test results: paper PMC11876601 (Molecular Systems Biology, 2025)
Read-outs that look alike come from different tables or passages of the source.

What was measured:
Assay in all cases: cells
Parameters in all cases: Viability of PDAC cell lines, ATPlite luminescence, 11-dose single-agent curve fit
PANC-1 = tested on: PANC-1
Method in brief: (§1)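 screening used cells plated at 1000 to 5000 per well one day before treatment. Final DMSO was 0.2%. Each plate held untreated negative-control wells and 5 µM staurosporine positive-control wells.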

HPDE = conditions: 72 h
Method in brief: as §1

FAMPAC = conditions: 72 h
Method in brief: as §1

AsPC-1 = tested on: AsPC-1
Method in brief: as §1

PSN-1 = tested on: PSN-1
Method in brief: as §1

BxPC-3 = tested on: BxPC-3
Method in brief: as §1

Capan-1 = tested on: Capan-1
Method in brief: as §1

HuP-T4 = tested on: HuP-T4
Method in brief: as §1

MiaPaCa-2 = tested on: MiaPaCa-2
Method in brief: as §1

Colo-357 = tested on: Colo-357
Method in brief: as §1

Suit2-07 = conditions: 72 h
Method in brief: as §1

PaTu-8988-T = conditions: 72 h
Method in brief: as §1

Dan-G = conditions: 72 h
Method in brief: as §1

[1] = Homo sapiens, PANC-1, 72 h, read-out: EC50 [nM]
[2] = Homo sapiens, ASPC1, 72 h, read-out: EC50 [nM]
[3] = Homo sapiens, PSN1, 72 h, read-out: EC50 [nM]
[4] = Homo sapiens, BXPC-3, 72 h, read-out: EC50 [nM]
[5] = Homo sapiens, CAPAN-1, 72 h, read-out: EC50 [nM]
[6] = Homo sapiens, HuP-T4, 72 h, read-out: EC50 [nM]
[7] = Homo sapiens, MIA PaCa-2, 72 h, read-out: EC50 [nM]
[8] = Homo sapiens, COLO357, 72 h, read-out: EC50 [nM]
[9] = Homo sapiens, PaTu 8988t, read-out: EC50 [nM]

Compound | EC50 (PANC-1; [1]) [nM] | EC50 (AsPC-1; [2]) [nM] | EC50 (BxPC-3; [4]) [nM] | EC50 (MiaPaCa-2; [7]) [nM] | EC50 (Colo-357; [8]) [nM] | EC50 (HPDE; HPDE, read-out: EC50 [nM]) [nM] | EC50 (FAMPAC; read-out: EC50 [nM]) [nM] | EC50 (PSN-1; [3]) [nM] | EC50 (Capan-1; [5]) [nM] | EC50 (HuP-T4; [6]) [nM] | EC50 (Suit2-07; read-out: EC50 [nM]) [nM] | EC50 (PaTu-8988-T; [9]) [nM] | EC50 (Dan-G; read-out: EC50 [nM]) [nM] | also measured
O=C(Nc1cnn2ccc(N3CCC[C@@H]3c3cc(F)ccc3F)nc12)N1CC[C@H](O)C1 [Larotrectinib] |  |  |  |  |  |  |  |  |  |  |  |  |  | EC50 (PANC-1; 72 h, read-out: EC50): 211 nM; EC50 (HPDE; read-out: EC50): 459 nM; EC50 (FAMPAC; read-out: EC50): 842 nM; EC50 (AsPC-1; 72 h, read-out: EC50): 53.5 nM; EC50 (PSN-1; 72 h, read-out: EC50): 270 nM; EC50 (BxPC-3; 72 h, read-out: EC50): 357 nM; EC50 (Capan-1; 72 h, read-out: EC50): 3880 nM; EC50 (HuP-T4; 72 h, read-out: EC50): 148 nM; EC50 (MiaPaCa-2; 72 h, read-out: EC50): 53.6 nM; EC50 (Colo-357; 72 h, read-out: EC50): 34.9 nM; EC50 (Suit2-07; read-out: EC50): 196 nM; EC50 (PaTu-8988-T; read-out: EC50): 678 nM; EC50 (Dan-G; read-out: EC50): 451 nM
Cc1cn(-c2cc(NC(=O)c3ccc(C)c(Nc4nccc(-c5cccnc5)n4)c3)cc(C(F)(F)F)c2)cn1 [Nilotinib] | 3790 | > 10000 | 3610 | 3700 | > 10000 | > 10000 | > 10000 | > 10000 | > 10000 | 22.2 | 186 | 5190 | > 10000 | 
C[C@H]1Oc2cc(cnc2N)-c2c(nn(C)c2C#N)CN(C)C(=O)c2ccc(F)cc21 [Lorlatinib] | 8920 | 4980 | 1270 | 2650 | 6220 | 999 | 207 | 554 | 1070 | 1320 | 3240 | 5400 | 3210 | 
Cc1cccc(-c2[nH]c(CNc3ccccc3F)nc2-c2ccc3ncnn3c2)n1 [Vactosertib] | 3660 | 78.2 | 2150 | 6110 | 7510 | 217 | 3450 | 4290 | 809 | 17.8 | 0.8 | 838 | 51.8 | 
Clc1ccc(Nc2nnc(Cc3ccncc3)c3ccccc23)cc1 [Vatalanib] | > 10000 | > 10000 | 9360 | > 10000 | 3990 | 32.8 | 6650 | 4870 | 4530 | 23.9 | > 10000 | 3840 | 6860 | 
O=c1sn(-c2cccc3ccccc23)c(=O)n1Cc1ccccc1 [Tideglusib] | > 10000 | 66.8 | 2600 | 344 | 24.5 | 58 | 2070 | 0.13 | 51.8 | 4540 | 9730 | 636 | 1490 | 

Continued by falling EC50 (PANC-1; [1]), values first:

EC50 (PANC-1; [1]) [nM] | EC50 (AsPC-1; [2]) [nM] | EC50 (BxPC-3; [4]) [nM] | EC50 (MiaPaCa-2; [7]) [nM] | EC50 (Colo-357; [8]) [nM] | Compound | EC50 (HPDE; HPDE, read-out: EC50 [nM]) [nM] | EC50 (FAMPAC; read-out: EC50 [nM]) [nM] | EC50 (PSN-1; [3]) [nM] | EC50 (Capan-1; [5]) [nM] | EC50 (HuP-T4; [6]) [nM] | EC50 (Suit2-07; read-out: EC50 [nM]) [nM] | EC50 (PaTu-8988-T; [9]) [nM] | EC50 (Dan-G; read-out: EC50 [nM]) [nM] | also measured
2600 | 1990 | 3240 | 1710 | 420 | Cn1cc(-c2cc3c(N4CCN(c5ncc([C@@](C)(N)c6ccc(F)cc6)cn5)CC4)ncnn3c2)cn1 [Avapritinib] | 976 | 2070 | 1010 | 3830 | 701 | 3550 | 1570 | 3820 | 
804 | 292 | 1670 | 2520 | 515 | CONC(=O)c1ccccc1Nc1cc(Nc2cc(C)nn2C(C)C)ncc1Cl [GSK2256098] | 156 | 3020 | 5120 | 1650 | 4790 | 6450 | 858 | 3730 | 
655 | 394 | > 10000 | 4890 | 4390 | COc1cc2nccc(Oc3ccc(NC(=O)NC4CC4)c(Cl)c3)c2cc1C(N)=O [Lenvatinib] | > 10000 | 164 | 7480 | 7850 | 0.14 | 0.2 | > 10000 | 39.1 | 
655 | 26.5 | 683 | > 10000 | 0.12 | CC(C)Oc1ccc(-c2nn([C@@H](C)c3oc4ccc(F)cc4c(=O)c3-c3cccc(F)c3)c3ncnc(N)c23)cc1F [Umbralisib] | 6540 | 8790 | 62.6 | 39.7 | 1370 | 1310 | 4550 | 441 | 
365 | 1.48 | 756 | 718 | 2640 | CC#CC(=O)N1CCC[C@H]1c1nc(-c2ccc(C(=O)Nc3ccccn3)cc2)c2c(N)nccn12 [Acalabrutinib] | 703 | > 10000 | 4470 | 3020 | 632 | 13.1 | 1590 | 553 | 
260 | 1050 | 1780 | 3580 | 196 | Cc1cn(-c2cc(NC(=O)c3ccc(C)c(Nc4nccc(-c5cnccn5)n4)c3)cc(C(F)(F)F)c2)cn1 [Radotinib] | 6.45 | 4270 | 11 | 4010 | > 10000 | 99.5 | 1390 | 5910 | 
